Like-named read-outs stand apart in the source and are kept apart here. Where a SMILES comes first, the peptide text is derived from it.

This note sets out measurements from PMC3499488, “A Potential Peptide Therapeutic Derived from the Juxtamembrane Domain of the Epidermal Growth Factor Receptor” (PLoS ONE, 2012).

The test system of series [1] is MDA-MB-231 cells. Nature of the series: Cell viability assay (CellTiter-Glo). It counts as cell-based, human. From the text: Assays are run in triplicate.
(Cellular ATP, detected with luciferase, serves as a proxy for viable cell number.)

In another series the test system is A-549 cells. The following applies: read-out: EC50 value; serum starved overnight, 24 h treatment; mean ± S.D. of two to three independent experiments. As for the experimental part: (§1) Cells were plated into a 96-well plate (5,000 to 10,000 cells per well) in full growth media. The following day, media is exchanged for serum starved media (0.1% BSA in growth media without FBS) and incubated overnight. Cells were treated for 24 hours with peptides at varying concentrations range (0.78 to 200 µM). The cell viability is read using luminescent cell viability dye (CellTiter-Glo, Promega Corporation, USA) by adding 20 µL of dye to each well containing 100 µL of treated media. The cell viability is calculated by dividing each luminescent reading by the average of the luminescent readings for control, untreated cells. Assays are run in triplicate. Dose-response curves were generated and fitted in Prism 5.0 (GraphPad Software, Inc., USA). The EC50 values were generated using the log inhibitor-normalized response variable slope function (Y = 100/(1+10∧((LogEC50-X)*HillSlope)). EC50 values are shown with standard deviation values (S.D.) from at least three independent experiments. For comparison of MDA-MB-231 with HMEC, the cells were not serum starved and plated and treated in HMEC media.

Series [2] deals with HMEC (normal human mammary epithelial cells). As to conditions: read-out: EC50 value; treated in HMEC media, 24 h; mean ± S.D. As for the experimental part: as §1
Series [3] concerns IMR-90 normal lung fibroblasts. As to conditions: serum starved overnight, 24 h treatment; mean ± S.D. As for the experimental part: as §1
For series [4], the system named is NR6 cells (EGFR null clone of NIH/3T3 fibroblasts). The following applies: read-out: EC50 value; serum starved overnight, 24 h treatment; mean ± S.D. of two to three independent experiments. As for the experimental part:
as §1

For series [5], the system named is MDA-MB-231 cells. In words: Cellular entry of FAM-labeled peptides, live-cell fluorescent confocal microscopy. It is filed as cell-based, human. As to conditions: N-terminally FAM-labeled peptide, 2.5 µM, serum starved cells in HBSS, live-cell confocal fluorescence. As to the method: MDA-MB-231 cells (1×10^5 cells per plate) were plated on 35 mm glass-bottom plates (MatTek Corporation, Ashland, MA), allowed to adhere overnight, then serum starved overnight and analyzed the following day in HBSS (Hank’s balanced salt solution). For real-time uptake of the FAM-labeled peptides, after recording background images, the FAM-labeled peptides were added and cells were imaged every two minutes over approximately 30 minutes. After 30 minutes, images were taken less frequently. Images from representative timepoints are shown. For overnight treatment, the cells were treated in serum-starved media, exchanged into HBSS the following day and imaged.

The test system of series [6] is MDA-MB-231 xenograft tumors. Nature of the series: MDA-MB-231 xenografts in nude mice. It is filed as in vivo. As to the method: NCR-nude female athymic mice were purchased from Taconic Farms, Inc. Mice were injected in the flank region with 1.5×10^6 MDA-MB-231 cells, while anesthetized with ketamine and xylazine. Prior to treatment, tumors were measured in three dimensions using a caliper and tumor volume was calculated by multiplying the three measured dimensions by 0.5 (V = 0.5*l*w*h). Once the tumors reached a minimum size of 100 mm^3, mice were injected intraperitoneally, twice a week, with 200 µL of the TE-64562 peptide (40 mg/kg; 7 µmol/kg), Tat peptide in PBS (20 mg/kg; 7 µmol/kg) or PBS. Endpoints were defined as the tumor size reaching 2000 mm^3 or 20 mm in any dimension, significant weight loss occurring or if the mouse appearing unhealthy according to body conditioning scoring standards. For histological analysis, organs were collected post-sacrifice and fixed in 4% formaldehyde in PBS, followed by paraffin embedding. Sections (6 µm thick) were mounted onto positively charged slides and H&E stained. Images were captured at 20× resolution on a Zeiss Axioplan 2 microscope.

In series [7] the test system is EGFR dimerization in MDA-MB-231 cells. In words: EGFR dimer detection, BS3 cross-linking and Western blot. It is filed as cell-based, human. As to conditions: 25 µM, 30 minutes; reduction in the loading control (Stat3). As for the experimental part: Cells were plated in 10-cm dishes, grown to 80% confluence, serum starved overnight, treated and analyzed. For dose response assays, the peptides, EGFR-specific tyrosine kinase inhibitor (TKI) or control was added to each plate and incubated at 37°C for 30 minutes, followed by EGF (10 ng/mL) for an additional 10 minutes at 37°C. For timecourses, TE-64562 and/or EGF were added and the cells were incubated at 37°C for the indicated amounts of time. For EGFR dimer detection, cells were cross-linked after treatment using BS^3 crosslinker (bis[sulfosuccinimidyl] suberate, Thermo scientific, Inc) according to the manufacturer’s instructions. Immediately following treatment, cells were put on ice, washed twice with cold Tris-buffered saline (TBS, pH 7.4) and lysed with radio-immunoprecipitation buffer (50 mM Tris pH 7.5, 100 mM NaCl, 1% NP-40, 0.5% deoxycholate, 0.1% SDS, 1 mM EDTA and protease inhibitor cocktail). After protein concentration determination, cell lysates were analyzed by Western blot analysis with the indicated antibodies following standard procedures and visualized by chemiluminescence. Images were quantified using ImageJ Version 1.43 u.
(In western blotting, separated proteins are transferred to a membrane and probed.)

One may read the EC50 as the concentration giving half of the maximal effect. On to `CC[C@H](C)[C@H](NC(=O)[C@H](Cc1c[nH]cn1)NC(=O)[C@H](CCCNC(=N)N)NC(=O)[C@H](CCCNC(=N)N)NC(=O)[C@H](CCCNC(=N)N)NC(=O)CNC(=O)[C@H](CCCNC(=N)N)NC(=O)[C@H](CCCNC(=N)N)NC(=O)[C@H](CCCNC(=N)N)NC(=O)[C@H](CCC(N)=O)NC(=O)[C@H](CCCNC(=N)N)NC(=O)[C@H](CCCNC(=N)N)NC(=O)[C@H](CCCCN)NC(=O)[C@H](CCCCN)NC(=O)[C@@H](N)CCCNC(=N)N)C(=O)N[C@H](C(=O)N[C@@H](CCCNC(=N)N)C(=O)N[C@@H](CCCCN)C(=O)N[C@@H](CCCNC(=N)N)C(=O)N[C@H](C(=O)N[C@@H](CC(C)C)C(=O)N[C@@H](CCCNC(=N)N)C(=O)N[C@@H](CCCNC(=N)N)C(=O)N[C@@H](CC(C)C)C(=O)N[C@@H](CC(C)C)C(=O)N[C@@H](CCC(N)=O)C(=O)N[C@@H](CCC(=O)O)C(=O)N[C@@H](CCCNC(=N)N)C(=O)O)[C@@H](C)O)C(C)C` [TE-64562] (H-RKKRRQRRRGRRRHIVRKRTLRRLLQER-OH), for which the EC50 with MDA-MB-231 cells [1] (cells not serum starved, plated and treated in HMEC media, 24 h, mean ± S.D., read-out: EC50) was found to be 7.4 ± 1.9 µM; with MDA-MB-231 cells [1] (serum starved overnight (0.1% BSA, no FBS), 24 h treatment, CellTiter-Glo, mean ± S.D. of at least three independent experiments, read-out: EC50± S.D.) it was 12.6 ± 2.3 µM; in the series on A-549 cells, 6.1 ± 0.9 µM; in series [2] it was 38.4 ± 6.1 µM; in series [3] it was 174 ± 54 µM; in series [4] it was 104 ± 9 µM. In the series on MDA-MB-231 cells [5], the “time until peptide entered cells” value was “approximately 10 minutes”. Also, the toxicity in vivo result in series [6] (40 mg/kg intraperitoneally bi-weekly) is given as “does not show any significant non-selective toxicity in vivo”. In series [6] (40 mg/kg intraperitoneally bi-weekly, versus Tat and saline groups), the “body weight over the course of the study” value was “No significant difference in body weight”. Moreover, the “histological examination of post-treatment liver, spleen and kidney” value in series [6] (end of 5 weeks of treatment, H&E) was “No differences between the treatment groups”. For the same compound, in series [7], the “toxicity to the cells in the dimerization experiment” value is given as “fairly toxic to the cells”.
